# PMC8006714 (Chemical Communications (Cambridge, England), 2021)
# “Also recorded” adds a separate entry of the source. Counter-ions that a name gives are not always drawn.
# Target: T1, SARS-CoV-2 M^pro (Severe acute respiratory syndrome coronavirus 2, UniProt P0DTD1)
# Assay: biochemical
# Assay type: biochemical
# Conditions: not given
Molecule,% Mpro inhibition at 20 µM,M^pro inhibition (in words),inhibition at a fixed 20 μM inhibitor concentration [%]
"C[n+]1cc2c3c(ccc2c2ccc4cc5c(cc4c21)OCO5)OCO3 [Sanguinarium chloride, Sanguinarine chloride]",98.7%,,
"Cc1ccc(S(=O)(=O)N[C@@H](CCCCN)C(=O)CCl)cc1.Cl [TLCK, Nα-p-Toluenesulfonyl-L-lysine chloromethyl ketone hydrochloride]",88.3%,,
CC(Cc1ccc(O)c(O)c1)C(C)Cc1ccc(O)c(O)c1 (stereo not drawn) [Nordihydroguaiaretic acid],97.8%,,
CO/N=C(\C(=O)N[C@@H]1C(=O)N2C(C(=O)O)=C(CSC(=O)c3ccco3)CS[C@H]12)c1csc(N)n1.Cl [Ceftiofur hydrochloride],65.0%,,
O=C(N[C@@H](Cc1ccccc1)C(=O)CCl)OCc1ccccc1 [N-Carbobenzyloxy-L-phenylanlanyl chloromethyl ketone],100.0%,,
Chlorophyllide copper complex sodium salt,86.5%,,
Colistin sulfate,95.8%,,
CCN[C@@H]1C[C@H](N)[C@@H](O[C@H]2OC(CN)=CC[C@H]2N)[C@H](O)[C@H]1O[C@H]1OC[C@](C)(O)[C@H](NC)[C@H]1O.CCN[C@@H]1C[C@H](N)[C@@H](O[C@H]2OC(CN)=CC[C@H]2N)[C@H](O)[C@H]1O[C@H]1OC[C@](C)(O)[C@H](NC)[C@H]1O.O=S(=O)(O)O.O=S(=O)(O)O.O=S(=O)(O)O.O=S(=O)(O)O.O=S(=O)(O)O [Netilmicin sulfate],89.1%,,
"(R)-(−)-2,10,11-Trihydroxyaporphine hybrobromide",99.6%,,
CCCN1CCc2cccc3c2[C@H]1Cc1ccc(O)c(O)c1-3.Cl [(R)-(−)-Propylnorapomorphine hydrochloride],100.0%,,
NC(N)=Nc1ccc2[nH]c3c(c2c1)C[C@@]1(O)[C@H]2Cc4ccc(O)c5c4[C@@]1(CCN2CC1CC1)[C@H]3O5.O=C(O)C(F)(F)F.O=C(O)C(F)(F)F [Guanidinyl-naltrindole di-trifluoroacetate],99.6%,,
NC(=O)CI [Iodoacetamide],99.3%,,
CC(=O)OCC1=C(C(=O)[O-])N2C(=O)[C@@H](NC(=O)CCCC(N)C(=O)O)[C@H]2SC1.[Na+] (stereo partly drawn) [Cephalosporin C sodium],78.3%,inhibited,
OC[C@H]1O[C@H]([S-])[C@H](O)[C@@H](O)[C@@H]1O.[Au+] [Aurothioglucose],96.6%,,
Oc1ccccc1O [Pyrocatechol],85.4,,
CC=CC1=C(C(=O)O)N2C(=O)[C@@H](NC(=O)[C@H](N)c3ccc(O)cc3)[C@H]2SC1 [Cefprozil],57.5%,,
Cc1ccc(S(=O)(=O)/C=C/C#N)cc1 [BAY 11-7082],92.0%,,
"CCN(CC)C(=S)SSC(=S)N(CC)CC [Disulfiram, Tetraethylthiuram disulphide]",,,≥ 80
O=C([O-])c1ccccc1-c1c2cc(I)c(=O)c(I)c-2oc2c(I)c([O-])c(I)cc12.[Na+].[Na+] [Erythrosine sodium],86.5%,,
N.S=C(S)N1CCCC1 [Ammonium pyrrolidinedithiocarbamate],95.1%,,
"O=Nc1ccc2oc(=O)ccc2c1 [6-Nitroso-1,2-benzopyrone]",99.5%,,
CC(C)N(CCC(=O)c1ccc2ccccc2c1)Cc1ccccc1.Cl [ZM 39923 hydrochloride],96.9%,,
O=C1C(SCCO)=C(SCCO)C(=O)c2ccccc21 [NSC 95397],99.0%,,
CC(C)(C)c1ccc(S(=O)(=O)/C=C/C#N)cc1 [Bay 11-7085],95.0%,,
"Br.CCCN1CCc2cc(O)cc3c2[C@H]1Cc1ccc(O)c(O)c1-3 [(R)-(−)-2,10,11-Trihydroxy-n-propylnoraporphine hydrobromide]",98.3%,,
[Cl-].[NH3+][Pt-2]([NH3+])([Cl])[n+]1ccccc1 (stereo not drawn) [cis-Diammine(pyridine)chloroplatinum(II) chloride],99.6%,,
"Br.NC1CCc2cc(O)c(O)cc2C1 (racemic) [(±)-2-Amino-6,7-dihydroxy-1,2,3,4-tetrahydronaphthalene hydrobromide]",88.3%,,
Br.CN=c1nc(-c2ccccc2)n(-c2ccccc2)s1 [Sch-202676 hydrobromide],100.0%,,

# Same assay, conditions: 20, 50 and 100 µM β-lactam; 30 min or 60 min preincubation (Fig. S17)
row,Molecule,M^pro inhibition at single concentrations (in words)
1,CC1(C)S[C@@H]2[C@H](NC(=O)Cc3ccccc3)C(=O)N2[C@H]1C(=O)O [penicillin G],No inhibition was observed
2,CC1(C)S[C@@H]2[C@H](NC(=O)[C@H](N)c3ccccc3)C(=O)N2[C@H]1C(=O)OC1OC(=O)c2ccccc21 (stereo partly drawn) [talampicillin],weak time dependent inhibition
3,C=CC1=C(C(=O)O)N2C(=O)[C@@H](NC(=O)/C(=N\O)c3csc(N)n3)[C@H]2SC1 [Cefdinir],weak time dependent inhibition
4,O=C1[C@H](CC[C@H](O)c2ccc(F)cc2)[C@@H](c2ccc(O)cc2)N1c1ccc(F)cc1 [ezetimibe],weak time dependent inhibition
5,CO/N=C(\C(=O)N[C@@H]1C(=O)N2C(C(=O)O)=C(CSC(=O)c3ccco3)CS[C@H]12)c1csc(N)n1 [ceftiofur],weak time dependent inhibition
6,CC1(C)S[C@@H]2[C@H](NC(=O)COc3ccccc3)C(=O)N2[C@H]1C(=O)O [penicillin V],No inhibition was observed

# Same assay, conditions: SPE-MS, concentration not given
row,Molecule,M^pro inhibition (in words)
1,CC1=C(C(=O)O)N2C(=O)[C@@H](NC(=O)[C@H](N)c3ccccc3)[C@H]2SC1 [cephalexin],no Mpro inhibition was observed

# Same assay, conditions: library of FDA-approved small molecules; 20 µM compound, […] Mpro, 2.0 µM TSAVLQ/SGFRK-NH2; read-out: % Mpro inhibition at 20 µM
row,Molecule,inhibition at 20 µM [%]
1,Cc1c(-c2cnccn2)ssc1=S [Oltipraz],99.6

# Same assay, conditions: read-out: % Mpro inhibition at 20 µM
row,Molecule,inhibition at 20 µM [%]
1,NCc1ccccc1CC(=O)N[C@@H]1C(=O)N2C(C(=O)O)=C(CSc3nnnn3CC(=O)O)CS[C@H]12 [Ceforanide],10.2
2,"C[n+]1cc2c3c(ccc2c2ccc4cc5c(cc4c21)OCO5)OCO3 [Sanguinarium chloride, Sanguinarine chloride]",100
3,"O=c1oc(Cl)c(Cl)c2ccccc12 [3,4-Dichloroisocoumarin]",80.4
4,"O=C1C=CC(=O)C=C1 [1,4-Benzoquinone]",99.3
5,S=C=NCc1ccccc1 [Benzyl isothiocyanate],95.8
6,Oc1cc(O)cc(/C=C/c2ccc(O)c(O)c2)c1 [Piceatannol],93.8
7,CO/N=C(\C(=O)N[C@@H]1C(=O)N2C(C(=O)O)=C(C[N+]3(C)CCCC3)CS[C@H]12)c1csc(N)n1 [Cefepime hydrochloride],20.6
8,COc1ccc2c(c[n+](C)c3c4cc5c(cc4ccc23)OCO5)c1OC [Chelerythrine chloride],85.2
9,CC(=O)/N=c1/sc(S(N)(=O)=O)nn1C [Methazolamide],82.9
10,CC[N+]1(C)CCCC(OC(=O)C(O)(c2ccccc2)c2ccccc2)C1 (stereo not drawn) [Pipenzolate bromide],100
11,NC(=O)c1cc[n+](CC2=C(C(=O)[O-])N3C(=O)[C@@H](NC(=O)Cc4cccs4)[C@H]3SC2)cc1 [Cefalonium],9.2

# Same assay, conditions: read-out: % Mpro inhibition at 20 µM, LOPAC1280 library; 20 µM compound, […] Mpro, 2.0 µM TSAVLQ/SGFRK-NH2
row,Molecule,inhibition at 20 µM [%]
1,Oc1cc2c(cc1O)CN(C(=S)NCCc1ccc(Cl)cc1)CCC2 [Capsazepine],94.5
2,"CCN(CC)C(=S)SSC(=S)N(CC)CC [Disulfiram, Tetraethylthiuram disulphide]",97.5
3,N[C@@H](C(=O)N[C@@H]1C(=O)N2C(C(=O)O)=C(Cl)CS[C@H]12)c1ccccc1 [Cefaclor],8.7

# Same assay, conditions: read-out: % Mpro inhibition at 20 µM, library of FDA-approved small molecules; 20 µM compound, […] Mpro, 2.0 µM TSAVLQ/SGFRK-NH2
row,Molecule,inhibition at 20 µM [%]
1,O=[N+]([O-])c1ccc(O)c2ncccc12 [Nitroxoline],96
2,"CCN(CC)C(=S)SSC(=S)N(CC)CC [Disulfiram, Tetraethylthiuram disulphide]",99.1

# Target: T1, SARS-CoV-2 M^pro
# Assay: not given
# Assay type: binding
# Conditions: 1 μM M^pro preincubated with 3 μM N3, 20 μM inhibitor
row,Molecule,covalent modification of M^pro preincubated with N3 (active site selectivity)
1,"Cc1ccc(S(=O)(=O)N[C@@H](CCCCN)C(=O)CCl)cc1.Cl [TLCK, Nα-p-Toluenesulfonyl-L-lysine chloromethyl ketone hydrochloride]",does not react with TLCK
2,Cc1ccc(S(=O)(=O)/C=C/C#N)cc1 [BAY 11-7082],multiple adducts observed with unmodified M^pro were diminished; also recorded: to a lesser extent compared to active site free M pro
3,O=C1C(SCCO)=C(SCCO)C(=O)c2ccccc21 [NSC 95397],does not selectively bind to the M pro active site

# Same assay, conditions: 1 μM M^pro preincubated with 3 μM N3, 20 μM inhibitor; listed as Nα-p-toluenesulfonyl-L-lysine chloromethyl ketone
row,Molecule,covalent modification of M^pro preincubated with N3 (active site selectivity)
1,"Cc1ccc(S(=O)(=O)N[C@@H](CCCCN)C(=O)CCl)cc1.Cl [TLCK, Nα-p-Toluenesulfonyl-L-lysine chloromethyl ketone hydrochloride]",substantial covalent modification was no longer observed

# Same assay, conditions: 1 μM M^pro, 20 μM inhibitor, 20 mM HEPES pH 7.5, 50 mM NaCl
row,Molecule,covalent modification of M^pro (protein observed SPE-MS)
1,"Cc1ccc(S(=O)(=O)N[C@@H](CCCCN)C(=O)CCl)cc1.Cl [TLCK, Nα-p-Toluenesulfonyl-L-lysine chloromethyl ketone hydrochloride]",covalently reacts with M pro
2,Cc1ccc(S(=O)(=O)/C=C/C#N)cc1 [BAY 11-7082],reacts with Mpro at multiple position
3,O=C1C(SCCO)=C(SCCO)C(=O)c2ccccc21 [NSC 95397],reacts with Mpro at multiple positions

# Same assay, conditions: 1 µM Mpro, 100 fold excess of β-lactam, 25 min to 24 h
row,Molecule,covalent reaction with M^pro (protein observed SPE-MS)
1,CO[C@@]1(NC(=O)C2SC(=C(C(N)=O)C(=O)O)S2)C(=O)N2C(C(=O)O)=C(CSc3nnnn3C)CS[C@@H]21 (stereo partly drawn) [cefotetan],evidence for more than one reaction was accrued
2,C[C@]1(Cn2ccnn2)[C@H](C(=O)O)N2C(=O)C[C@H]2S1(=O)=O [tazobactam],increased over time
3,CO[C@@]1(NC(=O)Cc2cccs2)C(=O)N2C(C(=O)O)=C(COC(N)=O)CS[C@@H]21 [cefoxitin],evidence for more than one reaction was accrued
4,CO[C@@]1(NC(=O)C(C(=O)O)c2ccc(O)cc2)C(=O)N2C(C(=O)O)=C(CSc3nnnn3C)CO[C@@H]21 (stereo partly drawn) [moxalactam],(partial) inhibitor fragmentation was observed
5,CCN1CCN(C(=O)N[C@@H](C(=O)N[C@]2(OC)C(=O)N3C(C(=O)O)=C(CSc4nnnn4C)CS[C@@H]32)[C@H](C)O)C(=O)C1=O [cefbuperazone],evidence for more than one reaction was accrued
6,O=C(O)[C@H]1/C(=C/CO)O[C@@H]2CC(=O)N21 [clavulanate],(partial) inhibitor fragmentation was observed
